Test results reported in US11166959B2, “Isofuranone compounds useful as HPK1 inhibitors” (BRISTOL-MYERS SQUIBB COMPANY, priority 2017, dated 2021).

Columns and labels:
HPK1 = target: T1, HPK1 (Homo sapiens, UniProt Q92918); assay: HPK1 Inhibition Assay (kinase reaction, Caliper capillary electrophoresis); assay type: biochemical; settings: for IC50: 0.625 nM HPK1, 22 μM ATP, 11 concentrations, read-out: HPK1 IC50; for IRAK4/HPK1 Ratio: ratio of the IRAK4 IC50 value to the HPK1 IC50 value
T1 construct: purchased SignalChem M23-11G
T1 sequence (Q92918 1-346 limits assumed): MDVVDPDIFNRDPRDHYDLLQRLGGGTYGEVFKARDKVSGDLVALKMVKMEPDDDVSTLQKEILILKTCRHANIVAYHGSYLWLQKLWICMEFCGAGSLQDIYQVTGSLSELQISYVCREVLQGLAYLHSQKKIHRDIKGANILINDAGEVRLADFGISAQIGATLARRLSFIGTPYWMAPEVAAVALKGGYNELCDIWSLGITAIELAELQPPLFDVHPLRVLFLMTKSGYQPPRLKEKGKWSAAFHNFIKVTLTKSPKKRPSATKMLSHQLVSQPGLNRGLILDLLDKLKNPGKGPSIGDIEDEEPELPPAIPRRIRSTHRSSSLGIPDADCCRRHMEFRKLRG
Protocol: (§1) The reactions were incubated out for three hours and quenched with 1 mM EDTA solution. The reaction incubation time and enzyme concentration were optimized to obtain a maximum peptide substrate conversion of 20-30%. The reaction mixtures were analyzed by capillary electrophoresis on a Caliper LabChip EZ Reader to resolve phosphorylated and unphosphorylated peptide species and determine peptide substrate conversion. […] The compounds were dissolved in DMSO and evaluated at 11 concentrations to determine the IC50 values.

IRAK4 = target: T2, IRAK4 (Homo sapiens, UniProt Q9NWZ3); assay: IRAK4 Inhibition Assay (kinase reaction, Caliper capillary electrophoresis); assay type: biochemical; settings: 500 μM ATP, 11 concentrations
T2 construct: 1 nM IRAK4 (160-460); purchased SignalChem M24016
T2 sequence (Q9NWZ3 160-460): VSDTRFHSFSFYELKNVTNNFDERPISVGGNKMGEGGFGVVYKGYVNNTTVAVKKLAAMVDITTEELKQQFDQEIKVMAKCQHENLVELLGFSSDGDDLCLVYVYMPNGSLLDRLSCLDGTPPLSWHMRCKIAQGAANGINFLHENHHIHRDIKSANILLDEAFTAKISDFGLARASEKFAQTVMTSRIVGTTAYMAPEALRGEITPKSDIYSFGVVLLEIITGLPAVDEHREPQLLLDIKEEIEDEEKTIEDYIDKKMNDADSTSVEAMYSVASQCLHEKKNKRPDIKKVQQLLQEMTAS
Protocol: as §1, with “determine” for “determine the”

IC50 (HPK1) [nM] | IRAK4/HPK1 Ratio (HPK1) | IC50 (IRAK4) [nM] | Structure (SMILES)
< 50 | B (B=10 to 50) | 250 to 1000 | O=C1OCc2cc(Nc3ncc(-c4ncccn4)c(N[C@H](CO)c4ccccc4)n3)ccc21 [Example 1, 5-[(4′-{[(1S)-2-hydroxy-1-phenylethyl]amino}-[2,5′-bipyrimidine]-2′-yl)amino]-1,3-dihydro-2-benzofuran-1-one]
< 50 | B (B=10 to 50) | 250 to 1000 | CC1(C)OC(=O)c2ccc(Nc3ncc(C(=O)NCC4CC(F)(F)C4)c(N[C@H](CO)c4ccccc4)n3)cc21 [Example 4, N-[(3,3-difluorocyclobutyl)methyl]-2-[(3,3-dimethyl-1-oxo-1,3-dihydro-2-benzofuran-5-yl)amino]-4-{[(1S)-2-hydroxy-1-phenylethyl]amino}pyrimidine-5-carboxamide]
< 50 | B (B=10 to 50) | 250 to 1000 | CN(C)CCCNC(=O)c1cnc(Nc2ccc3c(c2)C(C)(C)OC3=O)nc1N[C@H](CO)c1ccccc1 [Example 5, 2-[(3,3-dimethyl-1-oxo-1,3-dihydro-2-benzofuran-5-yl)amino]-N-[3-(dimethylamino)propyl]-4-{[(1S)-2-hydroxy-1-phenylethyl]amino}pyrimidine-5-carboxamide]
< 50 | B (B=10 to 50) | 50 to 250 | CC1(C)OC(=O)c2ccc(Nc3ncc(C(=O)NCc4ccccn4)c(N[C@H](CO)c4ccccc4)n3)cc21 [Example 6, 2-[(3,3-dimethyl-1-oxo-1,3-dihydro-2-benzofuran-5-yl)amino]-4-{[(1S)-2-hydroxy-1-phenylethyl]amino}-N-[(pyridin-2-yl)methyl]pyrimidine-5-carboxamide]
< 50 | B (B=10 to 50) | 250 to 1000 | CC1(C)OC(=O)c2ccc(Nc3ncc(C(=O)NCCCN4CCOCC4)c(N[C@H](CO)c4ccccc4)n3)cc21 [Example 7, 2-[(3,3-dimethyl-1-oxo-1,3-dihydro-2-benzofuran-5-yl)amino]-4-{[(1S)-2-hydroxy-1-phenylethyl]amino}-N-[3-(morpholin-4-yl)propyl]pyrimidine-5-carboxamide]
< 50 | B (B=10 to 50) | 50 to 250 | COCCNC(=O)c1cnc(Nc2ccc3c(c2)C(C)(C)OC3=O)nc1N[C@H](CO)c1ccccc1 [Example 8, 2-[(3,3-dimethyl-1-oxo-1,3-dihydro-2-benzofuran-5-yl)amino]-4-{[(1S)-2-hydroxy-1-phenylethyl]amino}-N-(2-methoxyethyl)pyrimidine-5-carboxamide]
< 50 | B (B=10 to 50) | 250 to 1000 | CN(C)CCNC(=O)c1cnc(Nc2ccc3c(c2)C(C)(C)OC3=O)nc1N[C@H](CO)c1ccccc1 [Example 9, 2-[(3,3-dimethyl-1-oxo-1,3-dihydro-2-benzofuran-5-yl)amino]-N-[2-(dimethylamino)ethyl]-4-{[(1S)-2-hydroxy-1-phenylethyl]amino}pyrimidine-5-carboxamide]
< 50 | C (C=>50) | 250 to 1000 | CC1(C)OC(=O)c2ccc(Nc3ncc(C(=O)NCc4ccccc4)c(N[C@H](CO)c4ccccc4)n3)cc21 [Example 10, N-benzyl-2-[(3,3-dimethyl-1-oxo-1,3-dihydro-2-benzofuran-5-yl)amino]-4-{[(1S)-2-hydroxy-1-phenylethyl]amino}pyrimidine-5-carboxamide]
< 50 | B (B=10 to 50) | 250 to 1000 | CC(C)(C)NC(=O)c1cnc(Nc2ccc3c(c2)C(C)(C)OC3=O)nc1N[C@H](CO)c1ccccc1 [Example 11, N-tert-butyl-2-[(3,3-dimethyl-1-oxo-1,3-dihydro-2-benzofuran-5-yl)amino]-4-{[(1S)-2-hydroxy-1-phenylethyl]amino}pyrimidine-5-carboxamide]
< 50 | B (B=10 to 50) | 250 to 1000 | CC(C)CNC(=O)c1cnc(Nc2ccc3c(c2)C(C)(C)OC3=O)nc1N[C@H](CO)c1ccccc1 [Example 12, 2-[(3,3-dimethyl-1-oxo-1,3-dihydro-2-benzofuran-5-yl)amino]-4-{[(1S)-2-hydroxy-1-phenylethyl]amino}-N-(2-methylpropyl)pyrimidine-5-carboxamide]
50 to 250 | B (B=10 to 50) | 250 to 1000 | CC(NC(=O)c1cnc(Nc2ccc3c(c2)C(C)(C)OC3=O)nc1N[C@H](CO)c1ccccc1)c1ccccc1 (stereo partly drawn) [Example 15, 2-[(3,3-dimethyl-1-oxo-1,3-dihydro-2-benzofuran-5-yl)amino]-4-{[(1S)-2-hydroxy-1-phenylethyl]amino}-N-(1-phenylethyl)pyrimidine-5-carboxamide]
50 to 250 | B (B=10 to 50) | 250 to 1000 | Cc1ccccc1CNC(=O)c1cnc(Nc2ccc3c(c2)C(C)(C)OC3=O)nc1N[C@H](CO)c1ccccc1 [Example 16, 2-[(3,3-dimethyl-1-oxo-1,3-dihydro-2-benzofuran-5-yl)amino]-4-{[(1S)-2-hydroxy-1-phenylethyl]amino}-N-[(2-methylphenyl)methyl]pyrimidine-5-carboxamide]
50 to 250 | B (B=10 to 50) | 250 to 1000 | CC1(C)OC(=O)c2ccc(Nc3ncc(C(=O)N[C@H]4C[C@@H]4c4ccccc4)c(N[C@H](CO)c4ccccc4)n3)cc21 [Example 17, 2-[(3,3-dimethyl-1-oxo-1,3-dihydro-2-benzofuran-5-yl)amino]-4-{[(1S)-2-hydroxy-1-phenylethyl]amino}-N-[(1S,2R)-2-phenylcyclopropyl]pyrimidine-5-carboxamide]
< 50 | B (B=10 to 50) | 250 to 1000 | CC1(C)OC(=O)c2ccc(Nc3ncc(C(=O)NCCCn4ccnc4)c(N[C@H](CO)c4ccccc4)n3)cc21 [Example 19, 2-[(3,3-dimethyl-1-oxo-1,3-dihydro-2-benzofuran-5-yl)amino]-4-{[(1S)-2-hydroxy-1-phenylethyl]amino}-N-[3-(1H-imidazol-1-yl)propyl]pyrimidine-5-carboxamide]
< 50 | B (B=10 to 50) | 250 to 1000 | Cc1cnc(CNC(=O)c2cnc(Nc3ccc4c(c3)C(C)(C)OC4=O)nc2N[C@H](CO)c2ccccc2)cn1 [Example 20, 2-[(3,3-dimethyl-1-oxo-1,3-dihydro-2-benzofuran-5-yl)amino]-4-{[(1S)-2-hydroxy-1-phenylethyl]amino}-N-[(5-methylpyrazin-2-yl)methyl]pyrimidine-5-carboxamide]
< 50 | B (B=10 to 50) | 250 to 1000 | C#CCNC(=O)c1cnc(Nc2ccc3c(c2)C(C)(C)OC3=O)nc1N[C@H](CO)c1ccccc1 [Example 21, 2-[(3,3-dimethyl-1-oxo-1,3-dihydro-2-benzofuran-5-yl)amino]-4-{[(1S)-2-hydroxy-1-phenylethyl]amino}-N-(prop-2-yn-1-yl)pyrimidine-5-carboxamide]
< 50 | C (C=>50) | 250 to 1000 | CC1(C)OC(=O)c2ccc(Nc3ncc(C(=O)NC4CCN(Cc5ccccc5)C4)c(N[C@H](CO)c4ccccc4)n3)cc21 (stereo partly drawn) [Example 22, N-(1-benzylpyrrolidin-3-yl)-2-[(3,3-dimethyl-1-oxo-1,3-dihydro-2-benzofuran-5-yl)amino]-4-{[(1S)-2-hydroxy-1-phenylethyl]amino}pyrimidine-5-carboxamide]
